Laboratory results published in patent US20260193271A1, “PAN-KRAS INHIBITOR COMPOUND” (ADLAI NORTYE BIOPHARMA CO., LTD., priority 2022, published 2026).

Key:
[1] = tested on: AsPC-1 (G12D); experiment: In vitro cell proliferation inhibition test (CellTiter-Glo), AsPC-1; type: cell-based; settings: KRAS (p.G12D), 72 h co-incubation
Description: (§1) Test Example 1: In Vitro Cell Proliferation Inhibition Test
(§2) Due to the diversity of RAS mutations and in order to evaluate the activity of compounds in different RAS mutation cell lines, we selected KRAS^WT, KRAS^G12C, KRAS^G12D, KRAS^G12V and BRAF mutation cell lines (see the table below) for in vitro activity evaluation and screening of compounds.
(§3) Protocol: CellTiter-Glo® Cell Luminescent Viability Assay (Promega)
(§4) According to the doubling time of different cell lines, different numbers of cells (1000-5000 cells/well) were seeded in 96-well plates containing 180 μl of corresponding culture medium and cultured overnight in a cell culture incubator at 37° C. with 5% CO2. On the second day, the test compound was pre-diluted 3-fold with culture medium, with the highest concentration being 100 μM, for a total of 10 concentration gradients; then 20 μl of culture medium containing different concentrations of the compound was added to the cells in the 96-well plate to ensure that the final concentration of the compound was up to 10 μM, with 10 concentration gradients of 3-fold dilution. After the cells and compounds were co-incubated for 72 h, the 96-well plate was removed from the incubator and equilibrated at room temperature for 30 min. Then, 25 μl of CellTiter-Glo® Reagent was added to each well and mixed thoroughly. The mixture was incubated at room temperature for 10 min, and then 100 μl of the sample was transferred to a white 96-well plate (OptiPlate™-96, PerkinElmer). The […] signal value was read using a multi-function microplate reader (SpectraMax® i3x, Molecular devices). The signal values were then standardized, and the curve was fitted using a four-parameter regression equation to calculate the half maximal inhibitory concentration (IC50) of the compound on the cell line.

[2] = tested on: SW480 (G12V); experiment: In vitro cell proliferation inhibition test (CellTiter-Glo), SW480; type: cell-based; settings: SW480 colon cell line, KRAS (p.G12V), 72 h co-incubation
Description: as §1, §2, §3, §4

[3] = Homo sapiens, ASPC1, AsPC-1 pancreas cell line

| SMILES | IC50 ([1]; AsPC-1 pancreas cell line) [nM] | IC50 [2] [nM] | IC50 [1, 3] [nM] | IC50 ([2]; Homo sapiens) [nM] |
| --- | --- | --- | --- | --- |
| CCn1c(-c2cc(-c3ccc(=O)n(CCN4CCOCC4)c3)cnc2[C@H](C)OC)c2c3cc(ccc31)-c1csc(n1)C[C@H](NC(=O)[C@H]1C[C@@H]1C)C(=O)N1CCC[C@H](N1)C(=O)OCC(C)(C)C2 (atropisomer, axis not shown) [Compound 40, (1S,2S)-N-((6^3S,4S,Z)-1^1-ethyl-1^2-(6-((S)-1-methoxyethyl)-1′-(2-morpholinoethyl)-6′-oxo-1′,6′-dihydro-[3,3′-bipyridin]-5-yl)-10,10-dimethyl-5,7-dioxo-6^1,6^2,6^3,6^4,6^5,6^6-hexahydro-1^1H-8-oxa-2(4,2)-thiazola-1(5,3)-indola-6(1,3)-pyridazinacycloundecaphane-4-yl)-2-methylcyclopropane-1-carboxamide] | – | – | 9.2 | 10 |
| CCn1c(-c2cc(-c3ccc(CN4CC[C@@H](O)C4)cn3)cnc2[C@H](C)OC)c2c3cc(ccc31)-c1csc(n1)C[C@H](NC(=O)[C@H]1C[C@@H]1C)C(=O)N1CCC[C@H](N1)C(=O)OCC(C)(C)C2 (atropisomer, axis not shown) [Compound 47, (1S,2S)-N-((6^3S,4S,Z)-1^1-ethyl-1^2-(5-(((R)-3-hydroxypyrrolidin-1-yl)methyl)-6′-((S)-1-methoxyethyl)-[2,3′-bipyridin]-5′-yl)-10,10-dimethyl-5,7-dioxo-6^1,6^2,6^3,6^4,6^5,6^6-hexahydro-1^1H-8-oxa-2(4,2)-thiazola-1(5,3)-indola-6(1,3)-pyridazinacycloundecaphane-4-yl)-2-methylcyclopropane-1-carboxamide] | – | – | 2.9 | 6.1 |
| CCn1c(-c2cc(-c3ccc4c(c3)CN(C)C4)cnc2C(C)OC)c2c3cc(ccc31)-c1csc(n1)CC(NC(=O)C1CC1C)C(=O)N1CCCC(N1)C(=O)OCC(C)(C)C2 [Compound 2′, (1S,2S)-N-((6^3S,4S,Z)-1^1-ethyl-1^2-(2-((S)-1-methoxyethyl)-5-(2-methylisoindolin-5-yl)pyridin-3-yl)-10,10-dimethyl-5,7-dioxo-6^1,6^2,6^3,6^4,6^5,6^6-hexahydro-1^1H-8-oxa-2(4,2)-thiazola-1(5,3)-indola-6(1,3)-pyridazinacycloundecaphane-4-yl)-2-methylcyclopropane-1-carboxamide] | 2500 | 820 | – | – |
| CCn1c(-c2cc(-c3nc(C)no3)cnc2[C@H](C)OC)c2c3cc(ccc31)-c1csc(n1)C[C@H](NC(=O)[C@H]1C[C@@H]1C)C(=O)N1CCC[C@H](N1)C(=O)OCC(C)(C)C2 [Compound 21′, (1S,2S)-N-((6^3S,4S,Z)-1^1-ethyl-1^2-(2-((S)-1-methoxyethyl)-5-(3-methyl-1,2,4-oxadiazol-5-yl)pyridin-3-yl)-10,10-dimethyl-5,7-dioxo-6^1,6^2,6^3,6^4,6^5,6^6-hexahydro-1^1H-8-oxa-2(4,2)-thiazola-1(5,3)-indola-6(1,3)-pyridazinacycloundecaphane-4-yl)-2-methylcyclopropane-1-carboxamide] | 1770 | – | – | – |
| CCn1c(-c2cc(-c3ccc4c(c3)CCN(C)C4)cnc2C(C)OC)c2c3cc(ccc31)-c1csc(n1)CC(NC(=O)C1C(C)C1C)C(=O)N1CCCC(N1)C(=O)OCC(C)(C)C2 [Compound 3′, (1r,2R,3S)-N-((6^3S,4S,Z)-1^1-ethyl-1^2-(2-((S)-1-methoxyethyl)-5-(2-methyl-1,2,3,4-tetrahydroisoquinolin-6-yl)pyridin-3-yl)-10,10-dimethyl-5,7-dioxo-6^1,6^2,6^3,6^4,6^5,6^6-hexahydro-1^1H-8-oxa-2(4,2)-thiazola-1(5,3)-indola-6(1,3)-pyridazinacycloundecaphane-4-yl)-2,3-dimethylcyclopropane-1-carboxamide] | 1230 | – | – | – |

The next lines start with the values.

| IC50 ([1]; AsPC-1 pancreas cell line) [nM] | IC50 [2] [nM] | IC50 [1, 3] [nM] | IC50 ([2]; Homo sapiens) [nM] | SMILES |
| --- | --- | --- | --- | --- |
| > 10000 | 3610 | – | – | CCn1c(-c2cc(-c3cc(C4CCCN4C)on3)cnc2C(C)OC)c2c3cc(ccc31)-c1csc(n1)CC(NC(=O)C1CC1C)C(=O)N1CCCC(N1)C(=O)OCC(C)(C)C2 [Compound 24′, (1S,2S)-N-((6^3S,4S,Z)-1^1-ethyl-1^2-(2-((S)-1-methoxyethyl)-5-(5-((R)-1-methylpyrrolidin-2-yl)isoxazol-3-yl)pyridin-3-yl)-10,10-dimethyl-5,7-dioxo-6^1,6^2,6^3,6^4,6^5,6^6-hexahydro-1^1H-8-oxa-2(4,2)-thiazola-1(5,3)-indola-6(1,3)-pyridazinacycloundecaphane-4-yl)-2-methylcyclopropane-1-carboxamide] |
| – | – | 8.5 | 7.8 | CCn1c(-c2cc(-c3ccc(CN4CC[C@@H](S(C)(=O)=O)C4)cn3)cnc2[C@H](C)OC)c2c3cc(ccc31)-c1csc(n1)C[C@H](NC(=O)[C@H]1C[C@@H]1C)C(=O)N1CCC[C@H](N1)C(=O)OCC(C)(C)C2 (atropisomer, axis not shown) [Compound 50, (1S,2S)-N-((6^3S,4S,Z)-1^1-ethyl-1^2-(6′-((S)-1-methoxyethyl)-5-(((R)-3-(methylsulfonyl)pyrrolidin-1-yl)methyl)-[2,3′-bipyridin]-5′-yl)-10,10-dimethyl-5,7-dioxo-6^1,6^2,6^3,6^4,6^5,6^6-hexahydro-1^1H-8-oxa-2(4,2)-thiazola-1(5,3)-indola-6(1,3)-pyridazinacycloundecaphane-4-yl)-2-methylcyclopropane-1-carboxamide] |
| – | – | 1.6 | 7.9 | CCn1c(-c2cc(-c3cnn([C@@H]4CCN(C)C4)c3)cnc2[C@H](C)OC)c2c3cc(ccc31)-c1csc(n1)C[C@H](NC(=O)[C@H]1C[C@@H]1C)C(=O)N1CCC[C@H](N1)C(=O)OCC(C)(C)C2 (atropisomer, axis not shown) [Compound 16, (1S,2S)-N-((6^3S,4S,Z)-1^1-ethyl-1^2-(2-((S)-1-methoxyethyl)-5-(1-((R)-1-methylpyrrolidin-3-yl)-1H-pyrazol-4-yl)pyridin-3-yl)-10,10-dimethyl-5,7-dioxo-6^1,6^2,6^3,6^4,6^5,6^6-hexahydro-1^1H-8-oxa-2(4,2)-thiazola-1(5,3)-indola-6(1,3)-pyridazinacycloundecaphane-4-yl)-2-methylcyclopropane-1-carboxamide] |
| – | – | 2.1 | 3.2 | CCn1c(-c2cc(-c3cc(CN4CCOCC4)ccn3)cnc2[C@H](C)OC)c2c3cc(ccc31)-c1csc(n1)C[C@H](NC(=O)[C@H]1C[C@@H]1C)C(=O)N1CCC[C@H](N1)C(=O)OCC(C)(C)C2 (atropisomer, axis not shown) [Compound 11, (1S,2S)-N-((6^3S,4S,Z)-1^1-ethyl-1^2-(6′-((S)-1-methoxyethyl)-4-(morpholinomethyl)-[2,3′-bipyridin]-5′-yl)-10,10-dimethyl-5,7-dioxo-6^1,6^2,6^3,6^4,6^5,6^6-hexahydro-1^1H-8-oxa-2(4,2)-thiazola-1(5,3)-indola-6(1,3)-pyridazinacycloundecaphane-4-yl)-2-methylcyclopropane-1-carboxamide] |
| – | – | 0.39 | 1 | CCn1c(-c2cc(-c3ccn(CCN4CCOCC4)c(=O)c3)cnc2[C@H](C)OC)c2c3cc(ccc31)-c1csc(n1)C[C@H](NC(=O)[C@H]1[C@H](C)[C@@H]1C)C(=O)N1CCC[C@H](N1)C(=O)OCC(C)(C)C2 (atropisomer, axis not shown) [Compound 36, (1r,2R,3S)-N-((6^3S,4S,Z)-1^1-ethyl-1^2-(6-((S)-1-methoxyethyl)-1′-(2-morpholinoethyl)-2′-oxo-1′,2′-dihydro-[3,4′-bipyridin]-5-yl)-10,10-dimethyl-5,7-dioxo-6^1,6^2,6^3,6^4,6^5,6^6-hexahydro-1^1H-8-oxa-2(4,2)-thiazola-1(5,3)-indola-6(1,3)-pyridazinacycloundecaphane-4-yl)-2,3-dimethylcyclopropane-1-carboxamide] |
| 836 | – | – | – | CCn1c(-c2cc(-c3cccc(CN4CCOCC4)c3)cnc2C(C)OC)c2c3cc(ccc31)-c1csc(n1)CC(NC(=O)C1CC1C)C(=O)N1CCCC(N1)C(=O)OCC(C)(C)C2 [Compound 9′, (1S,2S)-N-((6^3S,4S,Z)-1^1-ethyl-1^2-(2-((S)-1-methoxyethyl)-5-(3-(morpholinomethyl)phenyl)pyridin-3-yl)-10,10-dimethyl-5,7-dioxo-6^1,6^2,6^3,6^4,6^5,6^6-hexahydro-1^1H-8-oxa-2(4,2)-thiazola-1(5,3)-indola-6(1,3)-pyridazinacycloundecaphane-4-yl)-2-methylcyclopropane-1-carboxamide] |
| 1460 | – | – | – | CCn1c(-c2cc(-c3ccc(CN4CCC(F)C4)cc3)cnc2C(C)OC)c2c3cc(ccc31)-c1csc(n1)CC(NC(=O)C1CC1C)C(=O)N1CCCC(N1)C(=O)OCC(C)(C)C2 [Compound 6′, (1S,2S)-N-((6^3S,4S,Z)-1^1-ethyl-1^2-(5-(4-(((R)-3-fluoropyrrolidin-1-yl)methyl)phenyl)-2-((S)-1-methoxyethyl)pyridin-3-yl)-10,10-dimethyl-5,7-dioxo-6^1,6^2,6^3,6^4,6^5,6^6-hexahydro-1^1H-8-oxa-2(4,2)-thiazola-1(5,3)-indola-6(1,3)-pyridazinacycloundecaphane-4-yl)-2-methylcyclopropane-1-carboxamide] |
